Test results published in ChEMBL document CHEMBL4330129 (Bioorg Med Chem, 2019).
Values after ≈ are worked out from the molar mass of the structure shown.

Experiments:
[1] = biological target: Keap1/Nrf2 (Homo sapiens, UniProt Q14145+Q16236); assay: Binding affinity to FLAG/His-tagged Keap1 (unknown origin)/biotinylated full-length FLAG/His/Tev/Avi-tagged NRF2 (unknown origin) expressed in baculovirus infected Sf9 insect cells measured after 1 hr by TR-FRET assay
[2] = Kinetic solubility of the compound at pH 7.4 by CLND method; format: physicochemical; conditions: buffer, read-out: Kinetic_solubility
[3] = Binding affinity to FLAG/His-tagged Keap1 (unknown origin)/biotinylated full-length FLAG/His/Tev/Avi-tagged Cul3 (unknown origin) expressed in baculovirus infected Sf9 insect cells measured after 1 hr by TR-FRET assay; set-up: species or system Homo sapiens
[4] = Lipophilicity, log D of the compound at pH 7.4 by chromatographic method; format: physicochemical; conditions: buffer
[5] = organism: Homo sapiens; assay: Activation of Keap1/Cul3/Nrf2 in NHBE cells assessed as induction of HO-1 gene expression at 10 uM after 24 hrs by RT-PCR analysis relative to SFN; format: cell-based

Keap1/Nrf2, sequence (Q16236 whole entry): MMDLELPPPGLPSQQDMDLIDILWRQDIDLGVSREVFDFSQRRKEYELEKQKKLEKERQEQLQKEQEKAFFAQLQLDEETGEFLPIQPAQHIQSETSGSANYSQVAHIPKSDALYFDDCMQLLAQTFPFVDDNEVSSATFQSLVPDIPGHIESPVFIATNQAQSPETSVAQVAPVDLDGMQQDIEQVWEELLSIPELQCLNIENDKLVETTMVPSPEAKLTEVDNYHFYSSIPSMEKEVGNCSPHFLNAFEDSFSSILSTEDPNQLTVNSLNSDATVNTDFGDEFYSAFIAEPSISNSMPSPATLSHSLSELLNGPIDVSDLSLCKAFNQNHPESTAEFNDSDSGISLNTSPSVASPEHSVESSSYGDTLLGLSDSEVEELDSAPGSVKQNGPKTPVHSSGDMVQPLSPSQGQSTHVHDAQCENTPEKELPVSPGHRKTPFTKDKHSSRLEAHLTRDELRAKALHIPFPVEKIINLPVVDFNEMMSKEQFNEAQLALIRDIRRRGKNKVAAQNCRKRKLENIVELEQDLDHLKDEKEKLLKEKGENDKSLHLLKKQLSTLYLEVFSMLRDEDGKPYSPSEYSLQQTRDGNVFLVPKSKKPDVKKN
Keap1/Nrf2, sequence (Q14145 whole entry): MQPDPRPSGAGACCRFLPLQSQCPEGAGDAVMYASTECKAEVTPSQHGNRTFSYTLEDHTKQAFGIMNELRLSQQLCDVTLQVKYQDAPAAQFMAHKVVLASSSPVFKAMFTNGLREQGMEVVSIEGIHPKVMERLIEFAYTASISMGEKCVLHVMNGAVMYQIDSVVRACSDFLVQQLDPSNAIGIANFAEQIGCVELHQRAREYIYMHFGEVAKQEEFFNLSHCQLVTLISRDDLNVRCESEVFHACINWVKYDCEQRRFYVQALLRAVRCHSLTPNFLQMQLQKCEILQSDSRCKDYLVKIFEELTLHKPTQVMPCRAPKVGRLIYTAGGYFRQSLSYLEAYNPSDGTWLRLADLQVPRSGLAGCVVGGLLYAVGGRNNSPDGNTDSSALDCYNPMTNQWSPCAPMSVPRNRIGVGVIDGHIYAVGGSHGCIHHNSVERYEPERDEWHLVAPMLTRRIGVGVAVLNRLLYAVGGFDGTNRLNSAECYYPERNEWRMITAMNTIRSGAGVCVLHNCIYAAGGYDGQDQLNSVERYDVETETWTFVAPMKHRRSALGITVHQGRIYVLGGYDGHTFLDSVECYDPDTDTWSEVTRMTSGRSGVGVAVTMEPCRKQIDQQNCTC

Cc1ccccc1[S+]([O-])CCCCN=C=S (stereo not given)
IC50 [1]: 63.1 µM | solubility kinetic [2]: 362 µM (≈ 91.7 µg/mL) | pIC50 [3]: 4.6 | chromatographic logD [4]: 4.69 | fold change (FC) [5]: 1.3

CN1CCC(SC(=S)NCCCC[S+](C)[O-])CC1 (stereo not given)
IC50 [1]: > 100 µM | solubility kinetic [2]: ≥ 536 µM | pIC50 [3]: < 4 | chromatographic logD [4]: 0.81 | fold change (FC) [5]: 0.93

CN1CCC(SC(=S)NCC2CCS(=O)(=O)C2)CC1 (stereo not given)
IC50 [1]: > 100 µM | solubility kinetic [2]: ≥ 331 µM | pIC50 [3]: < 4 | chromatographic logD [4]: 1.03 | fold change (FC) [5]: 0.38

O=C(NCCCCN=C=S)Nc1ccc2nccnc2c1
IC50 [1]: 15.8 µM | solubility kinetic [2]: ≥ 356 µM | pIC50 [3]: 5.1 | chromatographic logD [4]: 3.13 | fold change (FC) [5]: 13.2

CN1CCC(SC(=S)NCCCCNC(=O)Nc2ccc3c(c2)OCO3)CC1
IC50 [1]: 20 µM | solubility kinetic [2]: ≥ 358 µM | pIC50 [3]: 5.1 | chromatographic logD [4]: 2.46 | fold change (FC) [5]: 25.1

CS(=O)(=O)N1CCC(CN=C=S)C1 (stereo not given)
IC50 [1]: > 100 µM | solubility kinetic [2]: ≥ 451 µM | pIC50 [3]: 4.1 | chromatographic logD [4]: 3.22 | fold change (FC) [5]: 0.68

CNC(=O)NCCCCN=C=S
IC50 [1]: 50.1 µM | solubility kinetic [2]: ≥ 436 µM | pIC50 [3]: 4.1 | chromatographic logD [4]: 2 | fold change (FC) [5]: 1.04

O=C(NCCCCN=C=S)c1cccnc1
IC50 [1]: 50.1 µM | solubility kinetic [2]: ≥ 289 µM | pIC50 [3]: 4.1 | chromatographic logD [4]: 2.63 | fold change (FC) [5]: 1.78

CC(C)(C)OC(=O)N1CCC(SC(=S)NCCCCNC(=O)Nc2ccncc2)CC1
IC50 [1]: 31.6 µM | solubility kinetic [2]: 85 µM (≈ 39.8 µg/mL) | pIC50 [3]: 4.6 | chromatographic logD [4]: 4.58 | fold change (FC) [5]: 20.7

CC(=O)N(C)CCS(=O)(=O)CCCCN=C=S
IC50 [1]: > 100 µM | solubility kinetic [2]: ≥ 340 µM | pIC50 [3]: < 4 | chromatographic logD [4]: 2.4 | fold change (FC) [5]: 0.29

C[S+]([O-])CCCCNC(=S)SCCCO (stereo not given)
IC50 [1]: 25.1 µM | solubility kinetic [2]: ≥ 467 µM | pIC50 [3]: < 4 | chromatographic logD [4]: 0.68 | fold change (FC) [5]: 0.24

CC(C)(C)OC(=O)N1CCC(SC(=S)NCCCCNC(=O)OCc2ccccn2)CC1
IC50 [1]: > 100 µM | solubility kinetic [2]: 80 µM (≈ 38.6 µg/mL) | pIC50 [3]: < 4 | chromatographic logD [4]: 5.67 | fold change (FC) [5]: 1.47

CC(C)(C)OC(=O)N1CCC(SC(=S)NCCCCNC(=O)Nc2ccc3c(c2)OCO3)CC1
IC50 [1]: 50.1 µM | solubility kinetic [2]: 17 µM (≈ 8.68 µg/mL) | pIC50 [3]: 4.4 | chromatographic logD [4]: 6.04 | fold change (FC) [5]: 55.6

O=S(=O)(CC1(N2CCC(CN=C=S)C2)COC1)c1ccccc1 (stereo not given)
IC50 [1]: 50.1 µM | solubility kinetic [2]: 242 µM (≈ 85.3 µg/mL) | pIC50 [3]: 4.7 | chromatographic logD [4]: 5.02 | fold change (FC) [5]: 8.15

COC(=O)C(C[S+]([O-])CCCCN=C=S)NC(C)=O (stereo not given)
IC50 [1]: > 100 µM | solubility kinetic [2]: 279 µM (≈ 85.5 µg/mL) | pIC50 [3]: < 4 | chromatographic logD [4]: 1.61 | fold change (FC) [5]: 0.11

CN1CCC(SC(=S)NCCCCNC(=O)OCc2ccccn2)CC1
IC50 [1]: 39.8 µM | solubility kinetic [2]: ≥ 385 µM | pIC50 [3]: 4.6 | chromatographic logD [4]: 1.83 | fold change (FC) [5]: 11.4

CN1CCC(SC(=S)NCCCCNC(=O)OCc2ccccc2)CC1
IC50 [1]: 10 µM | solubility kinetic [2]: 355 µM (≈ 140 µg/mL) | pIC50 [3]: 5.2 | chromatographic logD [4]: 3.49 | fold change (FC) [5]: 4.67

CN(C)CCC[S+]([O-])CCCCN=C=S (stereo not given)
IC50 [1]: > 100 µM | solubility kinetic [2]: ≥ 250 µM | pIC50 [3]: < 4 | chromatographic logD [4]: 0.81 | fold change (FC) [5]: 0.27

CN1CCC(SC(=S)NCCCCNC(=O)CC2CCCC2)CC1
IC50 [1]: 50.1 µM | solubility kinetic [2]: ≥ 256 µM | pIC50 [3]: 4.5 | chromatographic logD [4]: 3 | fold change (FC) [5]: 31.3

O=C(NCCCCN=C=S)OCc1ccccc1Cl
IC50 [1]: 5.01 µM | solubility kinetic [2]: 73 µM (≈ 21.8 µg/mL) | pIC50 [3]: 5.2 | chromatographic logD [4]: 6.35 | fold change (FC) [5]: 3.21

CN1CCC(SC(=S)NCCCCS(=O)(=O)c2ccncc2)CC1
IC50 [1]: 100 µM | solubility kinetic [2]: ≥ 419 µM | pIC50 [3]: 4.5 | chromatographic logD [4]: 1.56 | fold change (FC) [5]: 2

O=S(=O)(CC1(c2ccc(N=C=S)cc2)COC1)c1ccccc1
IC50 [1]: 39.8 µM | solubility kinetic [2]: 9 µM (≈ 3.11 µg/mL) | pIC50 [3]: 4.3 | chromatographic logD [4]: 4.21 | fold change (FC) [5]: 0.23

O=C(CCCCN=C=S)NCc1ccccc1
IC50 [1]: 20 µM | solubility kinetic [2]: ≥ 418 µM | pIC50 [3]: 4.7 | chromatographic logD [4]: 4.59 | fold change (FC) [5]: 28

CC(C)(C)OC(=O)N1CCC(SC(=S)NCCCCNC(=O)Nc2ccc3nccnc3c2)CC1
IC50 [1]: 15.8 µM | solubility kinetic [2]: 42 µM (≈ 21.8 µg/mL) | pIC50 [3]: 4.8 | chromatographic logD [4]: 5.02 | fold change (FC) [5]: 100

O=S1(=O)CCN(CCN=C=S)CC1
IC50 [1]: > 100 µM | solubility kinetic [2]: ≥ 274 µM | pIC50 [3]: < 4 | chromatographic logD [4]: 2.33 | fold change (FC) [5]: 0.19

O=C(NCCCCN=C=S)OCc1ccncc1
IC50 [1]: 39.8 µM | solubility kinetic [2]: 354 µM (≈ 93.9 µg/mL) | pIC50 [3]: 4.6 | chromatographic logD [4]: 3.5 | fold change (FC) [5]: 13.3

[O-][S+](CCCCN=C=S)c1ccccn1 (stereo not given)
IC50 [1]: 31.6 µM | solubility kinetic [2]: ≥ 372 µM | pIC50 [3]: 4.2 | chromatographic logD [4]: 3.16 | fold change (FC) [5]: 1.17

C[S+]([O-])CCCCNC(=S)SCc1cccc([N+](=O)[O-])c1 (stereo not given)
IC50 [1]: > 100 µM | solubility kinetic [2]: 372 µM (≈ 129 µg/mL) | pIC50 [3]: < 4 | chromatographic logD [4]: 3.81 | fold change (FC) [5]: 0.39

COC(=O)C(CS(=O)(=O)CCCCN=C=S)NC(C)=O (stereo not given)
IC50 [1]: > 100 µM | solubility kinetic [2]: ≥ 444 µM | pIC50 [3]: 4.3 | chromatographic logD [4]: 2.44 | fold change (FC) [5]: 0.16

O=C(NCCCCN=C=S)Nc1ccncc1
IC50 [1]: 31.6 µM | solubility kinetic [2]: 400 µM (≈ 100 µg/mL) | pIC50 [3]: 4.7 | chromatographic logD [4]: 2.6 | fold change (FC) [5]: 15.3

C[S+]([O-])CCCCNC(=S)SC1CCN(C(=O)OC(C)(C)C)CC1 (stereo not given)
IC50 [1]: > 100 µM | solubility kinetic [2]: 382 µM (≈ 151 µg/mL) | pIC50 [3]: 4.3 | chromatographic logD [4]: 4.23 | fold change (FC) [5]: 0.48

CN(C)CCCS(=O)(=O)CCCCN=C=S
IC50 [1]: > 100 µM | solubility kinetic [2]: 210 µM (≈ 55.5 µg/mL) | pIC50 [3]: < 4 | chromatographic logD [4]: 1.55 | fold change (FC) [5]: 0.34

[O-][S+](CCCCN=C=S)c1ccccc1 (stereo not given)
IC50 [1]: 50.1 µM | solubility kinetic [2]: 213 µM (≈ 51 µg/mL) | pIC50 [3]: 4.3 | chromatographic logD [4]: 4.11 | fold change (FC) [5]: 5.99

CC(=O)CCCCN=C=S
IC50 [1]: > 100 µM | solubility kinetic [2]: 206 µM (≈ 32.4 µg/mL) | pIC50 [3]: 4.1 | chromatographic logD [4]: 4.21 | fold change (FC) [5]: 0.9

CN1CCC(SC(=S)NCCCCNC(=O)NC2CCCC2)CC1
IC50 [1]: 39.8 µM | solubility kinetic [2]: ≥ 245 µM | pIC50 [3]: 4.5 | chromatographic logD [4]: 2.33 | fold change (FC) [5]: 19.3

Cl.O=C(NCCCCNC(=S)SC1CCNCC1)NC1CCCC1
IC50 [1]: 50.1 µM | solubility kinetic [2]: ≥ 323 µM | pIC50 [3]: 4.6 | chromatographic logD [4]: 1.52 | fold change (FC) [5]: 3.46

CNC(=O)NCCCCNC(=S)SC1CCN(C(=O)OC(C)(C)C)CC1
IC50 [1]: > 100 µM | solubility kinetic [2]: ≥ 377 µM | pIC50 [3]: < 4 | chromatographic logD [4]: 4.58 | fold change (FC) [5]: 0.59
